Counter-ions that a name gives are not always drawn.
Experiments:
honeybees = experiment: Test for Confirmation of Honeybee Repelling Effect 1, 2, 3 (feeding station with 40% sugar water); type: in vivo; conditions: for Corrected repelling rate R (%): Test 2, honeybees, 5 mL (active ingredient 5 mg); for Corrected repelling rate (%) Honeybees: Test 3, 5 mL
Excerpt: The following were used as the test samples for Examples: 2% by weight per volume ethanol solutions of octane (a-1), tetradecane (a-2), heptadecane (a-3), nonadecane (a-4), 2-acetylfuran (b-1), 5-methyl-2-furaldehyde (b-2), furfural (b-3), furaneol (c-1), 2-acetylpyrrole (d-1), 1-benzylpyrrole (d-2), 1-octanol (e-1), 1-dodecanol (e-2), and 1-octadecanol (e-3), respectively; and 2% by weight per volume aqueous solutions of furfuryl alcohol (b-4), sotolon (c-2), and α-angelicalactone (c-3), respectively.
The following were used as the test samples for Comparative Examples: 2% by weight per volume ethanol solutions of eicosane (carbon number 20, p-1), heneicosane (carbon number 21, p-2), 2-methyloctane (branched alkane, p-3), tributyl o-acetylcitrate (p-4), and 1-methylpyrrole (p-5), respectively; and 2% by weight per volume aqueous solutions of 2-methyltetrahydrofuran-3-one (p-6) and acetic acid (p-7), respectively.
Ethanol alone and water alone were used as samples for correction.
The cotton pads 13 were impregnated with 40% sugar water (80 g), after which disposable wooden chopsticks 15 (80 mm in length) were placed over the cotton pads on the lid surface as “landing areas,” for use as “test insect (honeybee) feeding station 1” 10.
A nest box of test insects (honeybees) (1 colony: approx. 6,000 bees) was placed at the center of a glass hothouse (bottom face: 5 m×10 m, height (highest part): 3 m, temperature: 25° C.), and the aforementioned “test insect (honeybee) feeding station 1” was installed at a location 2 meters away from the nest box.
After confirming that at least five test insects (honeybees) were feeding at the above “test insect (honeybee) feeding station 1” installed in the hothouse, test 1 was conducted to measure the “approaching count (Mz)” and “landing count (My)” and calculate the “landing rate (Mx).”
Next, the “test insect (honeybee) feeding station 1” installed in the hothouse was replaced with each “test insect (honeybee) feeding station 2” which was let to stand still for 5 minutes, after which test 2 was conducted to measure the “approaching count (Nz)” and “landing count (Ny)” and calculate the “landing rate (Nx).”
Approaching count: Total number of times a honeybee has approached within 25 cm of the cotton wools at the feeding station during 5 minutes
Landing count: Total number of honeybees that have remained for at least 1 second on the cotton pads at the feeding station during 5 minutes
Landing rate (%): (Landing count/Approaching count)×100
The “repelling rate Q” and “corrected repelling rate R” were calculated from the above “landing rates” using the calculation formula below. For the “repelling rate of sample for correction” used to calculate the “corrected repelling rate R,” the repelling rate of each of the samples for correction above (ethanol alone or water alone being a solvent for the active ingredient) was used.
Repelling rate Q (%)={(Mx)−(Nx)}/(Mx)×100
Corrected repelling rate R (%)={Repelling rate of test sample−Repelling rate of sample for correction}/{100−Repelling rate of sample for correction}×100
The following were used as the test samples for Examples: 0.1% by weight per volume ethanol solutions of 3-methyl-2-butanol (e-4), carvacrol (x-1), isoeugenol (x-2), cinnamyl alcohol (x-3), diacetone alcohol (x-4), α-amylcinnamaldehyde (x-5), 3-methyl-2-butenal (x-6), valeraldehyde (x-7), ethyl cinnamate (x-8), methyl cinnamate (x-9), ethyl isovalerate (x-10), isoamyl formate (x-11), 5-ethyl-2-methylpyridine (x-12), 2-(3-phenylpropyl)pyridine (x-13), 2,6-dimethylpyridine (x-14), ß-ionone (x-15), 2-acetylthiazole (x-16), butylamine (x-17), and citronella oil (x-18), respectively; and a 0.1% by weight per volume aqueous solution of (3-amino-3-carboxypropyl)dimethylsulfonium chloride (x-19).

stink bugs = experiment: Test for Confirmation of Stink Bug Behaviors against Active Ingredients 1, 2, 3 (treated filter paper); type: in vivo, southern green stink bugs
Excerpt: The test samples in “Test for Confirmation of Honeybee Repelling Effect 1” above were used.
A liquid calcium carbonate/ethanol dispersion was applied on the entire interior wall of a KP cup (100 mm in diameter×90 mm in height) and air-dried, after which a filter paper (90 mm in diameter) was fixed on the bottom face of the KP cup using double-sided tape. A different filter paper (90 mm in diameter) was cut along its diameter and the resulting semicircle-shaped paper was uniformly treated with 400 μL of each test sample or sample for correction, and then placed over the filter paper fixed on the aforementioned bottom face of the KP cup by allowing the circular parts to overlap, for use as a testing device.
The “repelling rate Y” and “corrected repelling rate Z” were calculated from the above “time A (sec)” and “time B (sec)” using the calculation formula below. For the “repelling rate of sample for correction” used to calculate the “corrected repelling rate Z,” the repelling rate of each of the samples for correction above (ethanol alone or water alone being a solvent for the active ingredient) was used.
Corrected repelling rate Z (%)={Repelling rate of test sample−Repelling rate of sample for correction}/{100−Repelling rate of sample for correction}×100
For the test samples, the test samples in “Test for Confirmation of Honeybee Repelling Effect 2” above were used.

[1] = 0.1% by weight per volume solution
[2] = Test 2, 0.1% by weight per volume solution, 400 μL
[3] = Test 3, 0.1% by weight per volume solution, 400 μL

Structure (SMILES)	Corrected repelling rate R (%) (honeybees; [1])	Corrected repelling rate (%) Stinkbugs (stink bugs; [2])	Corrected repelling rate (%) Honeybees (honeybees; [1])	repelling of stink bugs and other injurious insects to be exterminated (in words) (stink bugs)	Corrected repelling rate (%) Stinkbugs (stink bugs; [3])	also measured
CCCCC=O [x-7, valeraldehyde]	50.7%	<0%	–	–	–	–
CCOC(=O)C=Cc1ccccc1 [x-8, ethyl cinnamate]	21.8%	<0%	–	–	–	–
COC(=O)C=Cc1ccccc1 [x-9, methyl cinnamate]	93.3%	<0%	–	–	–	–
CCOC(=O)CC(C)C [x-10, ethyl isovalerate]	61.0%	<0%	–	–	–	–
CC(C)CCOC=O [x-11, isoamyl formate]	15.1%	<0%	–	–	–	–
CCc1ccc(C)nc1 [x-12, 5-ethyl-2-methylpyridine]	72.4%	<0%	–	–	–	–
c1ccc(CCCc2ccccn2)cc1 [x-13, 2-(3-phenylpropyl)pyridine]	86.4%	<0%	–	–	–	–
Cc1cccc(C)n1 [x-14, 2,6-dimethylpyridine]	50.0%	<0%	–	–	–	–
CC(=O)/C=C/C1=C(C)CCCC1(C)C [x-15, ß-ionone]	83.7%	<0%	–	–	–	–
CCCCN [x-17, butylamine]	83.4%	<0%	–	–	–	–
C[S+](C)CCC(N)C(=O)O.[Cl-] (centres unmarked) [x-19, (3-amino-3-carboxypropyl)dimethylsulfonium chloride]	40.9%	<0%	–	–	–	–
CC1(C)C2CCC1(C)C(O)C2 (centres unmarked) [y-1, borneol]	–	–	80.0%	not repelling stink bugs	∘	–
COc1ccc(C=O)cc1 [y-4, anisaldehyde]	–	–	91.5%	–	–	Corrected repelling rate (%) Stinkbugs (stink bugs; 0.5 h, 0.1 % strength): x (“x” for rates “not <0”)
O=CC=Cc1ccccc1 [y-5, cinnamaldehyde]	–	–	94.4%	not repelling stink bugs	∘	honeybee repelling rate (honeybees; Test 3, summary in text): ≥ 50%
CCOc1cc(C=O)ccc1O [y-6, ethyl vanillin]	–	–	60.3%	–	–	Corrected repelling rate (%) Stinkbugs (stink bugs; 0.5 h, 0.1 % strength): x (“x” for rates “not <0”)
COc1cc(C=O)ccc1O [y-7, vanillin]	–	–	61.2%	not repelling stink bugs	∘	–
C=C(C)C1CC=C(C=O)CC1 (centres unmarked) [y-8, perillaldehyde]	–	–	94.7%	–	–	Corrected repelling rate (%) Stinkbugs (stink bugs; 0.5 h, 0.1 % strength): x (“x” for rates “not <0”)
CC/C=C/C=O [y-10, trans-2-pentenal]	–	–	55.4%	not repelling stink bugs	∘	–

Structure (SMILES)	Corrected repelling rate R (%) (honeybees; [1])	Corrected repelling rate (%) Stinkbugs (stink bugs; [2])	Corrected repelling rate (%) Honeybees (honeybees; [1])	repelling of stink bugs and other injurious insects to be exterminated (in words) (stink bugs)	Corrected repelling rate (%) Stinkbugs (stink bugs; [3])	also measured
CC(C)CC=O [y-14, isovaleraldehyde]	–	–	65.5%	not repelling stink bugs	∘	–
CCOC(=O)c1ccc(O)cc1 [y-17, ethyl 4-hydroxybenzoate]	–	–	56.6%	not repelling stink bugs	∘	–
CC(=O)OCC=Cc1ccccc1 [y-18, cinnamyl acetate]	–	–	69.0%	not repelling stink bugs	∘	–
CC(=O)OCCc1ccccc1 [y-20, phenethyl acetate]	–	–	58.9%	not repelling stink bugs	∘	–
CCCCC(CC)COC(=O)c1ccccc1O (centres unmarked) [y-22, 2-ethylhexyl salicylate]	–	–	23.7%	–	∘	–
CC(=O)OC/C=C(\C)CCC=C(C)C [y-27, geranyl acetate]	–	–	68.0%	not repelling stink bugs	∘	–
CC(C)=CCC/C(C)=C/COC=O [y-28, geranyl formate]	–	–	98.0%	not repelling stink bugs	∘	–
COC(=O)c1ccccc1N [y-33, methyl anthranilate]	–	–	51.0%	not repelling stink bugs	∘	–
CCCCCCCCCCCC(=O)OCCCC [y-37, butyl laurate]	–	–	33.0%	–	∘	–
C=CCCCCCCCCC(=O)OCC [y-39, ethyl 10-undecenoate]	–	–	75.8%	not repelling stink bugs	∘	–
CCCCCCCCCCCC(=O)OCC [y-41, ethyl laurate]	–	–	59.6%	not repelling stink bugs	∘	–
CCOC(=O)CC(C)(C)C [y-42, ethyl tert-butylacetate]	–	–	27.7%	–	∘	–
C=CCOC(=O)CCC1CCCCC1 [y-43, allyl cyclohexanepropionate]	–	–	90.4%	not repelling stink bugs	∘	–
C=CCOC(=O)Cc1ccccc1 [y-44, allyl phenylacetate]	–	–	73.6%	not repelling stink bugs	∘	–
CCCCOC(C)=O [y-46, butyl acetate]	–	–	40.2%	–	–	Corrected repelling rate (%) Stinkbugs (stink bugs; 0.5 h, 0.1 % strength): x (“x” for rates “not <0”)
C=CCOC(=O)CCCCC [y-49, allyl hexanoate]	–	–	33.5%	–	∘	–
CCCC(=O)OCCC(C)C [y-51, isoamyl butyrate]	–	–	–	not repelling stink bugs	–	Corrected repelling rate (%) Honeybees (honeybees; 2.0% by weight per volume solution): 75.9%; Corrected repelling rate (%) Stinkbugs (stink bugs; Test 3, 2.0% by weight per volume solution, 400 μL): ∘
CCCCCCC(=O)OCC [y-54, ethyl heptanoate]	–	–	20.9%	–	∘	–

Reference: US20230210116A1, “HONEYBEE REPELLENT” (EARTH CORPORATION, priority 2020, published 2023)
